Data published in US7459277B2, “Mammalian T1R3 sweet taste receptors” (The Regents of the University of California, priority 2003, dated 2008).

Key:
[1] = biological target: T1, human T1R2 and mouse T1R3 GPCRs (UniProt Q8TE23+Q925D8); experiment: HEK cells transfected with human T1R2 and mouse T1R3; format: cell-based
T1 construct: expressed in transfected cells; host or cells: HEK cells
T1 sequence (Q8TE23 20-839): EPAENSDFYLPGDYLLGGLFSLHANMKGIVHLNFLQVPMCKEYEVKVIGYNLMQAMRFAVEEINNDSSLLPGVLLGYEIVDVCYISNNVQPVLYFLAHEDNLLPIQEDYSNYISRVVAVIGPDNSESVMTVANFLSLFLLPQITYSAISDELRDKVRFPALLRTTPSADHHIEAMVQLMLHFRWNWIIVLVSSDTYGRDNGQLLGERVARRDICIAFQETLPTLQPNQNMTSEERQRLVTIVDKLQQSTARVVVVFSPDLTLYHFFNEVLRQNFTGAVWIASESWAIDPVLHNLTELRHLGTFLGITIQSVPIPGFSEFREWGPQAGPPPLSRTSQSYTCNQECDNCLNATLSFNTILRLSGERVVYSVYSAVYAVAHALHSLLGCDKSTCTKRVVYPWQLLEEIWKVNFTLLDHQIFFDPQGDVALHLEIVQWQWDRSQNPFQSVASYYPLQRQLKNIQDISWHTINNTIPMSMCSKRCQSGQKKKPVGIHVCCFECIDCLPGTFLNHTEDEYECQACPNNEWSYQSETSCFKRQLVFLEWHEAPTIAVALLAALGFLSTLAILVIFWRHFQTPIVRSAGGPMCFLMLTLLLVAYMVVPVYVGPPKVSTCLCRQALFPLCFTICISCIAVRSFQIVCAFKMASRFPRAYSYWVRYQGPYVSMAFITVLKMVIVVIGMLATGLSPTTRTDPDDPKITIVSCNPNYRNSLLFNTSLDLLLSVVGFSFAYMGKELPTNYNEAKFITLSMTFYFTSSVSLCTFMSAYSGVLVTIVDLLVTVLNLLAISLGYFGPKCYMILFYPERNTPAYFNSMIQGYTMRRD
T1 sequence (Q925D8 21-858): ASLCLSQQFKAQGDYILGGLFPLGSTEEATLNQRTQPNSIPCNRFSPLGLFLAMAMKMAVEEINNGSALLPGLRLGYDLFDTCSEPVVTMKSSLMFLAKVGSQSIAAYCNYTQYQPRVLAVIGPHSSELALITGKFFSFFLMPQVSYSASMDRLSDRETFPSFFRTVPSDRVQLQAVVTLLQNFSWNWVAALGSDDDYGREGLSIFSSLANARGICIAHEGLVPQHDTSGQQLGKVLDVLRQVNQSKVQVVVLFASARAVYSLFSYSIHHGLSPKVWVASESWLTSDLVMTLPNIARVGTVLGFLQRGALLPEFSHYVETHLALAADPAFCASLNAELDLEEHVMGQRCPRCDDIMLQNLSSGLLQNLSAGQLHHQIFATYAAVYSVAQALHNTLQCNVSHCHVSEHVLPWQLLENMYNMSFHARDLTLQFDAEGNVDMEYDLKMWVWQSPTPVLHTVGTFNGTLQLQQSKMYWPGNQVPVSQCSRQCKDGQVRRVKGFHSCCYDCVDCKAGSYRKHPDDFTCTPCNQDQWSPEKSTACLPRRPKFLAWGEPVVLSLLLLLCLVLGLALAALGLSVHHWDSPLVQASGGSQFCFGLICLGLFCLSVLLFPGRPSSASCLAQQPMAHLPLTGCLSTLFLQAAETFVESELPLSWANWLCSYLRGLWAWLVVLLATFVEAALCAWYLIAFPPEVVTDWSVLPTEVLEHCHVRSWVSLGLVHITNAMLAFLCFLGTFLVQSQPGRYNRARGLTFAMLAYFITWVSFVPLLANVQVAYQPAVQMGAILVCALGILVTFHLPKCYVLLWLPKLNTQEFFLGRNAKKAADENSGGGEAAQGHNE
Procedure: (§1) We generated mice that were homozygous for the T1R2 KO allele, but instead expressed a human T1R2 transgene in the native “T1R2-cells”. A 12 kb genomic clone containing the T1R2 regulatory sequences was fused to a hT1R2 full length cDNA and introduced into T1R2 KO mice. Multiple independent lines were assayed for their selectivity and sensitivity to sweet tastants. To examine expression of hT1R2, we performed two-color fluorescent in situ hybridization experiments in transgenic animals carrying the wild type mT1R2 allele. […] Taken together, these experiments validate T1Rs as key determinants of differences in sweet taste selectivity and specificity between rodents and humans, and further substantiate T1R2+3, and T1R2-expressing cells, as an principal mediator of sweet taste in vivo. Finally, we propose that polymorphisms in both T1R2 and T1R3 are important determinants of human individual sweet taste preferences.
(§2) Modified HEK-293 cells (PEAK^rapid cells; Edge BioSystems, Md.) were grown, transfected with T1Rs and promiscuous G-proteins and assayed for functional responses to tastants by Ca-imaging essentially as described previously (Nelson, G. et al., Cell, 106, 381-390 (2001)). […] Acquisition and analysis of fluorescence images used TILL-Vision software.

[2] = biological target: T2, human T1R2 and human T1R3 (Homo sapiens, UniProt Q7RTX0+Q8TE23); experiment: Cells transfected with human T1R2 and human T1R3; format: cell-based
T2 construct: expressed in transfected cells; host or cells: cells (HEK inferred from the preceding sentence and b309)
T2 sequence (Q8TE23 20-839): T1 sequence (Q8TE23 20-839)
T2 sequence (Q7RTX0 21-852): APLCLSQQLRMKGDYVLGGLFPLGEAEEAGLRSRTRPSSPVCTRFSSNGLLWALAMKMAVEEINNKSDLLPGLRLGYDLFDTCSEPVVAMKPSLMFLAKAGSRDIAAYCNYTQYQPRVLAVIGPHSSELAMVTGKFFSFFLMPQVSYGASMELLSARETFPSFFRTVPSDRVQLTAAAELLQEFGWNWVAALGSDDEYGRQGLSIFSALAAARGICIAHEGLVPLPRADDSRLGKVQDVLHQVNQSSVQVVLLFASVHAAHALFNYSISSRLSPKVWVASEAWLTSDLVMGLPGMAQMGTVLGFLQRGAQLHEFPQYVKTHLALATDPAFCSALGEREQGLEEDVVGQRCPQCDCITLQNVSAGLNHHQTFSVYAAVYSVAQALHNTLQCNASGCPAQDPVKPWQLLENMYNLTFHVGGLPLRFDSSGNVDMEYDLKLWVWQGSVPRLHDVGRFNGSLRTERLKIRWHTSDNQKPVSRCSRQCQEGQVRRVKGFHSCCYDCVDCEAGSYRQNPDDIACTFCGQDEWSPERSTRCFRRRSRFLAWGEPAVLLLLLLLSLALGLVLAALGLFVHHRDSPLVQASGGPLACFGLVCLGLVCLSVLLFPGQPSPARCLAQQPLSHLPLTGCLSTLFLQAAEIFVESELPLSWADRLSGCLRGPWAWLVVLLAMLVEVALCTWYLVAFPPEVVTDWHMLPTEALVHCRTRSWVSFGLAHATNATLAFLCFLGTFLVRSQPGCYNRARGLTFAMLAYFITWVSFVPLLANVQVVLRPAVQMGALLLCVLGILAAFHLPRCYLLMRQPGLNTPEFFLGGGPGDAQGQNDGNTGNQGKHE
Procedure: as §1, §2

[3] = system: T1R2 KO mice expressing a human T1R2 gene; experiment: Behavioral taste responses of mice expressing a human T1R2 transgene; format: in vivo, mouse; conditions: humanized T1R2 mice (T1R2 KO + hT1R2 transgene); monellin ~10 uM, thaumatin ~5 uM, aspartame 10 mM, glycyrrhizic acid 500 uM, neohesperidin dihydrochalcone 400 uM
humans = conditions: sub-millimolar concentrations; cited from earlier work
rodents = conditions: 100 times higher concentrations than sweet to humans; cited from earlier work

- cell response [1]: do not respond
- cell response [2]: robustly respond
SMILES: COc1ccc(CCC(=O)c2c(O)cc(O[C@@H]3O[C@H](CO)[C@@H](O)[C@H](O)[C@H]3O[C@@H]3O[C@@H](C)[C@H](O)[C@@H](O)[C@H]3O)cc2O)cc1O [neohesperidin dihydrochalcone]
- behavioral response to human sweet tastants [3]: still do not respond
- sweet taste to humans (humans): taste sweet
- preference in rodents (rodents): no preference
